This is an account of results in US10336732B2, “1-heterocyclyl isochromanyl compounds and analogs for treating CNS disorders” (Sunovion Pharmaceuticals Inc., priority 2015, dated 2019).

Common to all, as to set-up: concentration or dose not given beside the values
One test addresses T1, 5-HT2B (Homo sapiens, UniProt P41595).
T1 construct: expressed in transfected cells; host or cells: CHO cells
Put plainly: In vitro radioligand binding assay, 5-HT2B, [125I](±)DOI. The following applies: human recombinant (CHO cells). On the procedure: (§1) Certain compounds were tested by in vitro binding assays using standard procedures. […] These receptors and assays are well known to those skilled in the art, as exemplified by the following: Abramovitz, M. et al. (2000), Biochem. Biophys. Acta., 1483: 285-293 (EP4, IP (PGI2)); Aharony, D. et al. (1993), Mol. Pharmacol., 44: 356-363 (NK2); Ardati, A. et al. (1997), Mol. Pharmacol., 51: 816-824 (NOP (ORL1)); Bignon, E. et al. (1999), J. Pharmacol. Exp. Ther. 289: 742-751 (CCK1 (CCKA)); Bloomquist, B. T. et al. (1998), Biochem. Biophys. Res. Commun., 243: 474-479 (GAL2); Brockhaus, M. et al. (1990), Proc. Natl. Acad. Sci. U.S.A., 87: 3127-3131 (TNF-α); Brown, G. B. (1986), J. Neurosci., 6: 2064-2070 (Na+ channel (site 2)); Buchan, K. W. et al. (1994), Brit. J. Pharmacol., 112: 1251-1257 (ETA); Cesura, A. M. et al. (1990), Mol. Pharmacol., 37: 358-366 (MAO-A); Choi, D. S. et al. (1994), FEBS Lett., 352: 393-399 (5-HT2B); Clark, A. F. et al. (1996), Invest. Ophtalmol. Vis. Sci., 37: 805-813 (GR); Couvineau, A. et al. (1985), Biochem. J., 231: 139-143 (VPAC1 (VIP1)); Dorje, F. et al. (1991), J. Pharmacol. Exp. Ther., 256: 727-733 (M1, M2, M3, M4); Ferry, G. et al. (2001), Eur. J. Pharmacol., 417: 77-89 (PPARγ); Fuchs, S. et al. (2001), Mol. Med., 7: 115-124 (ETB); Fuhlendorff, J. et al. (1990), Proc. Natl. Acad. Sci. U.S.A., 87: 182-186 (Y2); Ganapathy M E. et al. (1999), J. Pharmacol. Exp. Ther., 289: 251-260 (sigma (non-selective)); Gopalakrishnan, M. et al. (1996), J. Pharmacol. Exp. Ther., 276: 289-297 (N neuronal α4β2); Greengrass, P. and Bremner, R. (1979), Eur. J. Pharmacol., 55: 323-326 (α1 (non-selective)); Grandy, D. K. et al. (1989), Proc. Natl. Acad. Sci. U.S.A., 86: 9762-9766 (D25); Guard, S. et al. (1993), Eur. J. Pharmacol., 240:177-184 (BB (non-selective)); Heuillet, E. et al. (1993), J. Neurochem., 60: 868-876 (NK1, P2X); Hope, A. G. et al. (1996), Brit. J. Pharmacol., 118: 1237-1245 (5-HT3); Hoyer, D. et al. (1985), Eur. J. Pharmacol., 118: 1-12 (5-HT1B); Hugues, M. et al. (1982), J. Biol. Chem., 257: 2762-2769 (5-HT2A, SKCa channel); Joseph, S. S. et al. (2004), Naun.-Sch. Arch. Pharm., 369: 525-532 (β2); Le, M. T. et al. (2005), Eur. J. Pharmacol., 513: 35-45 (AT1); Le Fur, G. et al. (1983), Life Sci., 33: 449-457) (BZD (peripheral); Lee, Y. M. et al. (1993), J. Biol. Chem., 268: 8164-8169 (CCK2 (CCKB)); Leurs, R. et al. (1994), Brit. J. Pharmacol., 112: 847-854 (H2); Levin, M. C. et al. (2002), J. Biol. Chem., 277: 30429-30435 (11); Lewin, A. H. et al. (1989), Mol. Pharmacol., 35: 189-194 (Cl− channel (GABA-gated)); Lukas, R. J. (1986), J. Neurochem., 46: 1936-1941 (N muscle-type); Luthin, D. R. et al. (1995), Mol. Pharmacol., 47: 307-313; (A2A); Mackenzie, R. G. et al. (1994), Eur. J. Pharmacol., 266: 79-85 (D3); Mulheron, J. G. et al. (1994), J. Biol. Chem., 269: 12954-12962 (5-HT1A); Meng, F. et al. (1993), Proc. Natl. Acad. Sci. U.S.A., 90: 9954-9958 (κ (KOP)); Monsma, F. J. et al. (1993), Mol. Pharmacol., 43: 320-327 (5-HT6); Neote, K. et al. (1993), Cell, 72: 415-425 (CCR1); Pacholczyk, T. et al. (1991), Nature, 350: 350-354 (sst (non-selective, norepinephrine transporter)); Peralta, E. G. et al. (1987), Embo. J., 6: 3923-3929 (M3); Pristupa, Z. B. et al. (1994), Mol. Pharmacol., 45: 125-135 (dopamine transporter); Pruneau, D. et al. (1998), Brit. J. Pharmacol., 125: 365-372 (B2); Rees, S. et al. (1994), FEBS Lett., 355: 242-246 (5-HT5a); Reynolds, I. J. et al. (1986), J. Pharmacol. Exp. Ther., 237: 731-738 (Ca2+ channel (L, verapamil site)); Rinaldi-Carmona, M. et al. (1996), J. Pharmacol. Exp. Ther., 278: 871-878 (CB1); Salvatore, C. A. et al. (1993), Proc. Natl. Acad. Sci. U.S.A., 90: 10365-10369 (A3); Sarau, H. M. et al. (1997), J. Pharmacol. Exp. Ther., 281: 1303-1311 (NK3); Schioth, H. B. et al. (1997), Neuropeptides, 31: 565-571 (MC4); Sharples, C. […]

A further test concerns α2 (non-selective). Put plainly: In vitro radioligand binding assay, α2 (non-selective), [3H]RX 821002. Conditions: rat cerebral cortex membranes. On the procedure:
as §1

In another test the target is T2, 5-HT7 (Homo sapiens, UniProt P34969).
T2 construct: expressed in transfected cells; host or cells: CHO cells
Kind of test: In vitro radioligand binding assay, 5-HT7, [3H]LSD. The following applies: human recombinant (CHO cells). As for the experimental part:
as §1

T2 sequence (P34969 whole entry): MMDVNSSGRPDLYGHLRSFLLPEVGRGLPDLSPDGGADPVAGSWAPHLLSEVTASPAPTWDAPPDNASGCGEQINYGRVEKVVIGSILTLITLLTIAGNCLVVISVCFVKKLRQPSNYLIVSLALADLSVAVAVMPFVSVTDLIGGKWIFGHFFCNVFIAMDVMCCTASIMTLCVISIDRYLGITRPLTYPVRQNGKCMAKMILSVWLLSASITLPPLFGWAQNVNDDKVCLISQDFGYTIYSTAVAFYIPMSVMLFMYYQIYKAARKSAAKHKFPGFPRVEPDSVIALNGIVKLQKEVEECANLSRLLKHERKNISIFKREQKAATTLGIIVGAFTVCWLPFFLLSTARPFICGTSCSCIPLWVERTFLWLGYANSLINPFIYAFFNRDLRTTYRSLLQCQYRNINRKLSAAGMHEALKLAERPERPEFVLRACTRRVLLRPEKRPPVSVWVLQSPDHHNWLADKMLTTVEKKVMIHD
T1 sequence (P41595 whole entry): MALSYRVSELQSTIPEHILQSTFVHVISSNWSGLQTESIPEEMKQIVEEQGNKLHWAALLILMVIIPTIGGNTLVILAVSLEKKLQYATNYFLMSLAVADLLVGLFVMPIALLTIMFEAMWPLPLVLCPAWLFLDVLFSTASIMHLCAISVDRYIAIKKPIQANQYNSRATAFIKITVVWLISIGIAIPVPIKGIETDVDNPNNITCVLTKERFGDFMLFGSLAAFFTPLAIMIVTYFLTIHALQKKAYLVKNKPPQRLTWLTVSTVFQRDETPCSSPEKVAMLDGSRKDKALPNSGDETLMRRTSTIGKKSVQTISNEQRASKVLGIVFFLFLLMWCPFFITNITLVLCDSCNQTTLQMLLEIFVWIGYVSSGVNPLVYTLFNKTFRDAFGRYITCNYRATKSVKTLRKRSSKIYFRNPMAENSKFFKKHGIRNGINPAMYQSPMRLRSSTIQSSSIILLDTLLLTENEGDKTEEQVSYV

As to `Fc1cccc2c1[C@H]([C@@H]1CCCN1)OCC2` [Compound I-1, (S)-2-((R)-8-fluoroisochroman-1-yl)pyrrolidine], the “5HT2b percent inhibition of specific binding” value (from here on “5HT2b percent inhibition”) at 5-HT2B was 79%. In the test with α2 (non-selective), the “α2 percent inhibition of specific binding” value (“α2 percent inhibition” below) was determined as 95%. For the same compound, the “5HT7 percent inhibition of specific binding” value (“5HT7 percent inhibition” for short) on 5-HT7 worked out at 88%.

As for `Fc1ccc2c(c1)[C@H]([C@@H]1CCCN1)OCC2` [Compound I-5, (2S)-2-((R)-7-fluoroisochroman-1-yl)pyrrolidine], the “5HT2b percent inhibition” value on 5-HT2B is 72%. Besides, the “α2 percent inhibition” value in the test on α2 (non-selective) is listed as 96%. Also, on 5-HT7, the “5HT7 percent inhibition” value is 60%.

With `Fc1ccc2c(c1)CCO[C@H]2[C@@H]1CCCN1` [Compound I-9, (S)-2-((R)-6-fluoroisochroman-1-yl)pyrrolidine], the “5HT2b percent inhibition” value on 5-HT2B is reported as 76%. Besides, the “α2 percent inhibition” value in the test on α2 (non-selective) amounted to 91%. The “5HT7 percent inhibition” value at 5-HT7 was 80%.

`Clc1ccc2c(c1)[C@H]([C@@H]1CCCN1)OCC2` [Compound I-29, (S)-2-((R)-7-chloroisochroman-1-yl)pyrrolidine]: the “5HT2b percent inhibition” value at 5-HT2B came to 80%. The “α2 percent inhibition” value in the test on α2 (non-selective) worked out at 97%. Moreover, the “5HT7 percent inhibition” value at 5-HT7 is recorded as 52%.

As for `Fc1cccc2c1[C@H]([C@@H]1CCN1)OCC2` [Compound I-83, (S)-2-((R)-8-fluoroisochroman-1-yl)azetidine], at 5-HT2B, the “5HT2b percent inhibition” value was 83%. For the same compound, the “α2 percent inhibition” value in the test with α2 (non-selective) came out at 77%. The “5HT7 percent inhibition” value at 5-HT7 is listed as 99%.

Turning to `Fc1ccc2c(c1)CCO[C@H]2[C@@H]1CCN1` [Compound I-90, (S)-2-((R)-6-fluoroisochroman-1-yl)azetidine], the “5HT2b percent inhibition” value at 5-HT2B amounted to 77%. In addition, the “α2 percent inhibition” value in the test with α2 (non-selective) came out at 71%. Further, the “5HT7 percent inhibition” value at 5-HT7 was 96%.

On to `Fc1cccc2c1CCO[C@@H]2[C@@H]1CCN1` [Compound I-94, (S)-2-((S)-5-fluoroisochroman-1-yl)azetidine], for which the “5HT2b percent inhibition” value on 5-HT2B is reported as 76%. In addition, the “5HT7 percent inhibition” value on 5-HT7 worked out at 74%.

Take `Fc1cccc2c1CCO[C@@H]2[C@H]1CCN1` [Compound I-96, (R)-2-((S)-5-fluoroisochroman-1-yl)azetidine]: at 5-HT2B, the “5HT2b percent inhibition” value is 58%. The “α2 percent inhibition” value in the test with α2 (non-selective) came to 81%. The “5HT7 percent inhibition” value on 5-HT7 stood at 69%.
